Experimental data from PubChem BioAssay (NCI).
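Following 48 hours of exposure in 96-well plates, responses at five concentrations were used to interpolate endpoints linearly. GI50 marks 50% less growth. The concentration for full growth arrest is given as TGI.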

Legend:
Experiment in all cases: growth of human tumour cells (NCI), 48 h
DMS 114 small cell lung = test system: DMS 114 small cell lung
HOP-18 NSCLC = test system: HOP-18 NSCLC
KM20L2 colon = test system: KM20L2 colon
LXFL 529 NSCLC = test system: LXFL 529 NSCLC
RXF-631 renal = test system: RXF-631 renal
SNB-78 CNS = test system: SNB-78 CNS
XF 498 CNS = test system: XF 498 CNS
MDA-N = test system: MDA-N

Compound | TGI (DMS 114 small cell lung) | TGI (HOP-18 NSCLC) | TGI (KM20L2 colon) | TGI (LXFL 529 NSCLC) | TGI (RXF-631 renal) | TGI (SNB-78 CNS) | TGI (XF 498 CNS) | GI50 (HOP-18 NSCLC) | GI50 (KM20L2 colon) | TGI (MDA-N) | GI50 (MDA-N)
CCOC(OC(C)=O)[C@@H]1C=C[C@H](C)N(c2ccc([N+](=O)[O-])cc2)O1 (stereo partly specified) | 16.9 µM | 17.8 µM | 34.3 µM | 10.8 µM | 25.7 µM | 60.4 µM | 32.6 µM | – | – | – | –
CSc1ccc2c(cc1=O)[C@@H](NC(=O)c1cccc([N+](=O)[O-])c1)CCc1cc(O)c(O)c(O)c1-2 | 60 µM | > 100 µM | 56.5 µM | > 100 µM | > 100 µM | – | – | – | – | – | –
C=C(CCCCC)CN1CCCC1C(C)=O (stereo unspecified) | 42.8 µM | > 94.8 µM | > 100 µM | > 100 µM | – | > 76.6 µM | 41.7 µM | – | – | – | –
Cc1ccc(C)c(N2C(=O)C(=O)C(c3nc4ccccc4s3)/C(=N/N)C2=O)c1 (stereo unspecified) | > 100 µM | > 100 µM | > 100 µM | > 100 µM | – | > 100 µM | > 100 µM | – | – | – | –
COc1cc2cc(OC(C)=O)c3cc4c(cc3c2c(OC)c1OC)OCO4 | > 100 µM | > 100 µM | > 100 µM | > 100 µM | > 100 µM | > 100 µM | > 100 µM | – | – | – | –
COc1ccc(Cc2c3cc(O)c(=O)cc-3ccn2C)cc1 | 62.4 µM | > 100 µM | > 100 µM | – | > 100 µM | > 100 µM | > 100 µM | – | – | – | –
C=CCC1(CN(C)C)CC/C(=C\c2ccc(OC)cc2)C1=O (stereo unspecified) | > 100 µM | > 100 µM | > 100 µM | > 100 µM | 49 µM | > 100 µM | – | – | – | – | –
COC(=O)[C@@H]1c2cc3c(c(O)c2[C@@H](OC2OC(C)C(OC)C(C)(OC)C2OC)C[C@]1(C)O)C(=O)c1c(O)cc2c(c1C3=O)O[C@H]1O[C@]2(C)[C@H](O)[C@@H](N(C)C)[C@@H]1O (stereo partly specified) | 0.00521 µM | – | – | 1.28 µM | – | 0.0762 µM | – | 0.0404 µM | 0.0127 µM | 0.179 µM | –
CC(=O)Nc1ccc(/C=C/C(=O)c2sc(-c3cccnc3)nc2C)cc1 | > 100 µM | > 100 µM | > 100 µM | – | – | > 100 µM | – | – | – | – | –
CC1(C)OC2C(CCP(=O)(O)O)OC(c3nc(C(N)=O)cs3)C2O1 (stereo unspecified) | > 100 µM | > 100 µM | > 100 µM | > 100 µM | > 100 µM | – | – | – | – | – | –
Cc1nc([N+](=O)[O-])cn1-c1nc2ccccn2c1[N+](=O)[O-] | – | – | – | – | – | – | – | – | – | > 100 µM | –
CN(CCS(=O)(=O)N1C(=O)C2CCCN2C(=O)[C@@H]1Cc1ccccc1)C(=O)OCc1ccccc1 (stereo partly specified) | > 100 µM | > 100 µM | > 100 µM | > 100 µM | > 100 µM | > 100 µM | – | – | – | – | –
O=C1C=C(Nc2ccc(Cl)cc2Cl)c2ccccc2C1=O | 64.1 µM | – | > 100 µM | > 100 µM | > 100 µM | > 100 µM | – | – | – | – | –
COC(COC(N)=O)C1=C(N2CC2)C(=O)C(C)=C(N2CC2)C1=O (stereo unspecified) | 0.38 µM | 0.902 µM | 0.525 µM | 0.672 µM | – | 8.44 µM | 0.415 µM | – | – | 0.269 µM | –
CN(Cc1ccccc1)Cn1ccnc1 | – | – | – | – | – | – | – | – | – | > 100 µM | –
COC(=O)c1cc2c(=O)n(C)c3ccccc3n2c1C(=O)OC | > 100 µM | – | > 100 µM | > 100 µM | > 100 µM | > 100 µM | 51.3 µM | – | – | – | –
C/C(=N\N=C(N)N)C(CN1CCCCC1)C(c1ccccc1)c1c(O)c2ccccc2oc1=O (stereo unspecified) | > 100 µM | – | > 100 µM | > 100 µM | > 100 µM | – | > 100 µM | – | – | – | –
Cc1c(-c2cnccn2)ssc1=S | – | – | – | – | – | – | – | – | – | > 100 µM | –
CCOC(=O)Cc1c(C)c2cc(C(=O)c3ccccc3)c(O)cc2oc1=O | – | – | – | – | – | – | – | – | – | > 100 µM | –
COC1CCC(OS(C)(=O)=O)C(CO)O1 (stereo unspecified) | – | – | > 100 µM | > 100 µM | – | – | > 100 µM | – | – | – | –
C/C=C(\C)c1cc(=O)c2c(C)cc3c(c2o1)C(=O)c1c(O)c(C2CC(C)(N(C)C)C(OC(C)=O)C(C)O2)cc(C2CC(N(C)C)C(O)C(C)O2)c1C3=O (stereo unspecified) | – | – | – | – | – | – | – | – | – | 4.83 µM | –
O=C(O)CCNCC(=O)O | – | – | – | – | – | – | – | – | – | > 100 µM | –

Compound | TGI (DMS 114 small cell lung) | TGI (HOP-18 NSCLC) | TGI (KM20L2 colon) | TGI (LXFL 529 NSCLC) | TGI (RXF-631 renal) | TGI (SNB-78 CNS) | TGI (XF 498 CNS) | GI50 (HOP-18 NSCLC) | GI50 (KM20L2 colon) | TGI (MDA-N) | GI50 (MDA-N)
CCN(CC)CCCNc1nccc2c(C)c3c(cc12)c1cnccc1n3C | 0.463 µM | – | 1.93 µM | – | – | 2.76 µM | 0.923 µM | – | – | – | –
NCCSSCc1ccccc1CSSCCN | > 100 µM | > 100 µM | > 100 µM | > 100 µM | > 100 µM | > 100 µM | > 100 µM | – | – | – | –
Oc1ccc(C=Nc2ccccc2O)cc1 | – | – | – | – | – | – | – | – | – | 33.8 µM | –
N#C/C(=C\c1cc(O)cc(O)c1)C(N)=O | > 100 µM | – | > 100 µM | > 100 µM | > 100 µM | > 100 µM | > 100 µM | – | – | – | –
Cc1nc2sccn2c1C(=O)NN | > 100 µM | > 100 µM | > 100 µM | > 100 µM | > 100 µM | – | > 100 µM | – | – | – | –
COc1ccc(C(c2ccccc2)(c2ccc(OC)cc2)N2C(=O)NC3C(CCCCC(=O)NCCCCCCOP(OCCC#N)N(C(C)C)C(C)C)SCC32)cc1 (stereo unspecified) | 36.8 µM | 24.4 µM | 30.8 µM | 25.2 µM | 17.7 µM | 34.6 µM | 30.8 µM | – | – | – | –
O=C(C(=O)c1cc2ccccc2[nH]1)c1cc2ccccc2[nH]1 | > 347 µM | – | > 347 µM | > 347 µM | > 347 µM | > 347 µM | 336 µM | – | – | – | –
O=C1[C@H]2ON(c3ccccc3)C(c3ccc([N+](=O)[O-])cc3)[C@H]2C(=O)N1c1ccc(Cc2ccc(N3C(=O)[C@@H]4ON(c5ccccc5)C(c5ccc([N+](=O)[O-])cc5)[C@@H]4C3=O)cc2)cc1 (stereo partly specified) | > 100 µM | > 100 µM | > 100 µM | > 100 µM | > 100 µM | > 100 µM | – | – | – | – | –
CCC[C@H]1O[C@@H]2CC(=O)O[C@@H]2C2=C1C(=O)C=CC2=O | – | 31.9 µM | 43.8 µM | 29.6 µM | – | 45.7 µM | – | – | – | – | –
O=C(O)c1cc(-c2ccc3cc4c(cc3c2)OCO4)nc2ccccc12 | – | – | – | – | – | – | – | – | – | > 100 µM | –
C=C(C)[C@H]1CC[C@@]2(C)C(C1)[C@H](C)CC[C@@H]2O (stereo partly specified) | > 100 µM | > 100 µM | > 100 µM | > 100 µM | > 100 µM | > 100 µM | > 100 µM | – | – | – | –
CCc1cccc(C(C)C)c1NC(=O)C(=O)C1C(=O)Nc2ccccc2S1=O (stereo unspecified) | – | – | – | – | – | – | – | – | – | > 100 µM | –
C=CCNC(=O)NCCCCC(NC(C)=O)C(=O)NCc1ccccc1 (stereo unspecified) | > 100 µM | > 100 µM | > 100 µM | > 100 µM | – | – | > 100 µM | – | – | – | –
CCc1nc(N)nc(N)c1-c1ccc(Cl)c([N+](=O)[O-])c1 | – | – | – | – | – | – | – | – | – | > 100 µM | –
OCC1C(OCc2ccccc2)C(OCc2ccccc2)C(OCc2ccccc2)CN1Cc1ccccc1 (stereo unspecified) | – | – | – | – | – | – | – | – | – | > 100 µM | –
C=CSCCC(N)C(=O)O (stereo unspecified) | > 100 µM | > 100 µM | > 100 µM | > 100 µM | > 100 µM | > 100 µM | > 100 µM | – | – | – | –
CC(C)(O)C(O)COc1c2c(cc3oc(=O)ccc13)OCO2 (stereo unspecified) | > 100 µM | > 100 µM | > 100 µM | > 100 µM | – | – | > 100 µM | – | – | – | –
C=C[C@@H](C)[C@]1(C(=O)OC)CCCC12OCCO2 | > 100 µM | > 100 µM | > 100 µM | > 100 µM | – | – | > 100 µM | – | – | – | –
COc1ccc(Nc2nc3cc(N)cc(N)c3nc2-c2ccccc2)cc1 | – | – | – | – | – | – | – | – | – | 36 µM | 21.6 µM
O=C(O)CSc1n[nH]c(=O)[nH]c1=O | – | – | – | – | – | – | – | – | – | > 100 µM | –
COc1cc(C2C(Cl)C(=O)N2NC(=O)Cc2ccccc2)cc(Br)c1O (stereo unspecified) | > 100 µM | > 100 µM | > 100 µM | > 100 µM | – | > 100 µM | > 100 µM | – | – | – | –
NC(=O)NNC(=O)CCn1[nH]c(=O)c(Cl)c(Cl)c1=O | > 100 µM | > 100 µM | > 100 µM | > 100 µM | > 100 µM | > 100 µM | – | – | – | – | –
